# Measurements published in patent US10124065B2, “Lipids and lipid compositions for the delivery of active agents” (Novartis AG, priority 2013, dated 2018).
# Legend:
# human leptin [1] = experiment: Mouse subcutaneous injection of modified synthetic leptin mRNA, human leptin ELISA; assay type: in vivo; conditions: human leptin in mouse plasma, 10 μg leptin mRNA
# Description: Prior to subcutaneous injection, mouse body weights were recorded and diet weighted, with mice grouped according to their body weights. The mice were manually restrained and placed on a work surface. Their scruffs were pinched and lifted away from the underlying muscle, the space into which was inserted a 25 gauge needle connected with a 1 ml syringe. The syringe plunger was pulled backwards in such a way as to ensure no fluid was drawn into the syringe, and then the desired volume of leptin mRNA was hand injected with moderate pressure and speed. The needle was then withdrawn and the mice returned to their cages.
# 8-9 week old, male C57BL/6 mice were used for the in vivo study. FPLC purified modified synthetic leptin mRNA (SEQ ID NO: 5) in which the uridines were substituted with pseudouridine (N:P molar ratio=8:1) packaged in multiple cationic lipid were diluted in injectable saline at a dose of 10 μg per average group body weight.
# On day 0, animals were weighed and sorted according to average body weight. ice were dosed at 9 AM and blood was taken at 9 AM on day 0. Blood was also taken at 9 AM on each of days 1 and 2 and assessed for leptin protein levels. Body weight and food intake were also recorded.
# (§1) Human leptin in mouse plasma was measured by ELISA. Antibodies purchased from the R&D Systems duoset (Cat# DY398E, part#840279 for capture antibody and part#840280 for detection antibody) were reconstituted using PBS and titered, again using PBS. The capture antibody was coated at 4 ug/ml in 30 ul/well on a white Nunc® Maxisorp 384 well plate (Cat#460372). After an overnight incubation at room temperature the capture antibody was aspirated and the plate blocked for 2 hours at room temperature with 90 ul/well of KPL milk blocker (Cat#50-82-00). Once the incubation was completed the plate was aspirated and recombinant standards and samples were added to the plate at 30 ul/well for 2 hours at 37° C. while shaking at 600 rpm. Sample/standard dilutions were made using casein sample diluent. Washing/aspiration 3 times with 100 ul/well followed, using Teknova plate wash solution (Cat# P1192). Next, detection antibody was diluted using casein detection antibody diluent to 12.5 ng/ml and added at 30 ul/well for 2 hours room temperature. After this incubation, the plate was washed again and a solution of poly-streptavidin-HRP (Cat#21140) at a 1:1250 dilution in HRP dilution buffer was added to each well (30 ul/well) and incubated for 30 minutes room temperature. A final wash/aspiration removed the HRP solution and a chemiluminescent substrate was added at 30 ul/well (Cat#1859678 & 1859679). The plate was quickly read using a SpectramaxM5 plate reader with a 50 ms integration time. The dynamic range of the ELISA is from 100-2,000 pg/ml (6.25-125 pM) of human leptin. The assay is applicable to plasma from mice, rats and cynomolgus monkeys.
# [2] = tested on: plasma Factor VII enzyme activity; experiment: Mouse Factor VII dosing / Factor VII Activity Assay; assay type: in vivo; conditions: percent knock down of plasma Factor VII activity, CD-1 mice, 48 h; for KD FVII 0.03 mg/kg: single IV dose 0.03 mg/kg, LNP Chol/DSPC/S010 45/44/9/2; for KD FVII 0.3 mg/kg: single IV dose 0.3 mg/kg, LNP Chol/DSPC/PEG-DMG 45/44/9/2
# How it was run: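 Female CD-1 mice (~25 g) received a single IV tail-vein dose of lipid-nanoparticle-formulated Factor VII siRNA (0.3 or 0.03 mg/kg). Plasma taken ~48 h later; FVII activity measured chromogenically against vehicle-control plasma standard curve, reported as % knockdown.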
# human leptin [3] = experiment: Mouse intravenous tail vein injection of modified synthetic leptin mRNA, human leptin ELISA; assay type: in vivo, C57BL/6 mouse; conditions: human leptin in mouse plasma, 10 μg leptin mRNA, 24 h
# Description: Before the tail vein injection, mouse body weights were recorded and diet weighted, with mice grouped according to their body weights. Mice were prepared by warming them under a heating lamp for ˜2 minutes, with the mice about 12 inches from heat lamp.
# For the tail vein injection procedure, the mice were placed in a restrainer and their tails cleaned with 70% alcohol. A 27 gauge needle (Becton Dickinson, Catalogue #305109) connected with a 1 ml syringe (Becton Dickinson, Catalogue #309659) was inserted into the tail vein, with bevel facing up, and the syringe plunger was pulled backwards to ensure blood is drawn into the syringe. The desired volume of modified synthetic leptin mRNA was injected by hand with moderate pressure and speed. The needle was then withdrawn and bleeding stopped by adding pressure to injection site with gauze.
# Single housed, 8-9 week old, male C57BL/6 mice were used for the in vivo study. FPLC purified modified synthetic leptin mRNA (SEQ ID NO: 5) in which the uridines were substituted with pseudouridine was packaged in a cationic lipid (N:P molar ratio=8:1) and then were diluted in injectable saline at a dose of 10 μg per average group body weight.
# On day 0, animals were weighed and sorted according to average body weight. Mice were dosed, and food intake (FI) was recorded, on each of days 1-7 and days 9, 11, and 16.
# as §1, with “leptin.” for “leptin. The assay is applicable to plasma from mice, rats and cynomolgus monkeys.”
# [4] = Polydispersity index (PDI) of lipid nanoparticle (dynamic light scattering); assay type: physicochemical
# Description: Unless indicated otherwise, all PDIs referred to herein are the PDI of the fully formed nanoparticle, as measured by dynamic light scattering on a Malvern Zetasizer. The nanoparticle sample was diluted in phosphate buffered saline (PBS) so that the count rate was approximately 200-400 kcts. The data is presented in Tables 4 and 5 as a weighted average of the intensity measure.
# PLK-1 mRNA = experiment: LS411N Xenograft Assay; assay type: in vivo, Nu/Nu mice; conditions: percent knock down of PLK-1 mRNA vs control in LS411N tumors, IV 3 mg/kg daily for three days
# Description: Female Nu/Nu mice (6-8 weeks old) were implanted subcutaneously with 5×10^6 LS411N cells. Tumor growth was monitored by caliper measurement before treatment initiation. Mice bearing 150-250 mm^3 subcutaneous tumors were randomized and enrolled in the study. The stock siRNA formulations were diluted to […] with PBS for dosing. Animals enrolled in different groups received a single daily bolus IV injection of 3 mg/kg siRNA for three days. Tumors were harvested 24 hours post last injection to assess target gene regulation by qRT-PCR.
# Lipid nanoparticles comprising lipid compounds of formula (I) and the PLK1-424 siRNA duplex sequence listed above were tested in the LS411N Xenograft Assay. The results of this assay are given in Table 5 below as a percent knock down of PLK-1 mRNA as compared to the control when administered as a single daily dose for three days at a dose of 3 mg/kg.
# [5] = Particle size of lipid nanoparticle (dynamic light scattering, Malvern Zetasizer); assay type: physicochemical
# How it was run: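 Sizes are average diameters of fully formed nanoparticles measured by dynamic light scattering. Samples were diluted in PBS to a count rate of about 200–400 kcts. Values are intensity-weighted Z-average sizes.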
# [6] = FVII siRNA LNP, Chol/DSPC/S010, molar ratio 45/44/9/2
# [7] = PLK1-424 siRNA LNP, Chol/DSPC/PEG-DSG 45/44/9/2
# [8] = FVII siRNA LNP, Chol/DSPC/S010, molar ratio 45/44/9/2, Z-average
# [9] = PLK1-424 siRNA LNP, Chol/DSPC/S010 45/44/9/2
smiles,measurement,setting,value
"CCCCCCCCCCCC(=O)OCCCCCCOc1cc(CN(C)C)cc(OCCCCCCOC(=O)CCCCCCCCCCC)c1 [Example 59, ((5-((dimethylamino)methyl)-1,3-phenylene)bis(oxy))bis(hexane-6,1-diyl)didodecanoate]","Leptin expression SC-C57BI/6, 24 h",human leptin [1],1.16 ng/mL
same,KD FVII 0.03 mg/kg,[2],48.24%
same,"Leptin expression IV-C57BI/6, 24 h",human leptin [3],8.08 ng/mL
"CCCCC/C=C\C/C=C\CCCCCCCC(=O)OCCCCOc1cc(CN(C)C)cc(OCCCCOC(=O)CCCCCCC/C=C\CCCCCCCC)c1 [Example 63, (9Z,12Z)-4-(3-((dimethylamino)methyl)-5-(4-(oleoyloxy)butoxy)phenoxy)butyl octadeca-9,12-dienoate]",KD FVII 0.03 mg/kg,[2],75%
same,PDI,[4]; [6],0.057
same,PDI,[4]; [7],0.047
same,LS411 KD 3 × 3 mg/Kg,PLK-1 mRNA; LNP Chol/DSPC/PEG-DSG 45/44/9/2,66%
same,Size (nm),[5]; [8],91.66 nm
same,Size (nm),[5]; [7],108.6 nm
"CCCCCCCC(=O)OCCCCCCCCOc1cc(CN(C)C)cc(OCCCCCCCCOC(=O)CCCCCCC)c1 [Example 42, ((5-((dimethylamino)methyl)-1,3-phenylene)bis(oxy))bis(octane-8,1-diyl)dioctanoate]",KD FVII 0.03 mg/kg,[2],92.8%
same,LS411 KD 3 × 3 mg/Kg,PLK-1 mRNA; LNP Chol/DSPC/S010 45/44/9/2,50%
"CCCCC/C=C\C/C=C\CCCCCCCC(=O)OCCCOc1cc(CN(C)C)cc(OCCCOC(=O)CCCCCCC/C=C\C/C=C\CCCCC)c1 [Example 39, (9Z,9′Z,12Z,12′Z)-((5-((dimethylamino)methyl)-1,3-phenylene)bis(oxy))bis(propane-3,1-diyl)bis(octadeca-9,12-dienoate)]","Leptin expression SC-C57BI/6, 24 h",human leptin [1],0.79 ng/mL
same,"Leptin expression IV-C57BI/6, 24 h",human leptin [3],10.47 ng/mL
same,LS411 KD 3 × 3 mg/Kg,PLK-1 mRNA; LNP Chol/DSPC/S010 45/44/9/2,55%
"CCCCCCCC(=O)OCC(CCOc1cc(CN(C)C)cc(OCCC(COC(=O)CCCCCCC)OC(=O)CCCCCCC)c1)OC(=O)CCCCCCC (centres unmarked) [Example 91, 4,4′-((5-((dimethylamino)methyl)-1,3-phenylene)bis(oxy))bis(butane-1,2-diyl)tetraoctanoate]",KD FVII 0.3 mg/kg,[2],99.0%
same,PDI,"[4]; FVII siRNA LNP, Chol/DSPC/PEG-DMG, molar ratio 45/44/9/2",0.06
same,PDI,[4]; [6],0.053
same,PDI,[4]; [9],0.032
same,LS411 KD 3 × 3 mg/Kg,PLK-1 mRNA; LNP Chol/DSPC/S010 45/44/9/2,45%
same,Size (nm),"[5]; FVII siRNA LNP, Chol/DSPC/PEG-DMG, molar ratio 45/44/9/2, Z-average",124.3 nm
same,Size (nm),[5]; [8],111.9 nm
same,Size (nm),[5]; [9],136.1 nm
"CCCCCCCC(=O)OCCCCCCCCCCOc1cc(CN(C)C)cc(OCCCCCCCCCCOC(=O)CCCCCCC)c1 [Example 43, ((5-((dimethylamino)methyl)-1,3-phenylene)bis(oxy))bis(decane-10,1-diyl)dioctanoate]","Leptin expression SC-C57BI/6, 24 h",human leptin [1],0.66 ng/mL
same,KD FVII 0.3 mg/kg,[2],97.4%
same,"Leptin expression IV-C57BI/6, 24 h",human leptin [3],13.56 ng/mL
same,LS411 KD 3 × 3 mg/Kg,PLK-1 mRNA; LNP Chol/DSPC/S010 45/44/9/2,40%
"CCCCCCCC(=O)OCCCCCC(=O)OCc1cc(COC(=O)CCCCCOC(=O)CCCCCCC)cc(CN(C)C)c1 [Example 85, (((5-((dimethylamino)methyl)-1,3-phenylene)bis(methylene))bis(oxy))bis(6-oxohexane-6,1-diyl)dioctanoate]","Leptin expression IV-C57BI/6, 24 h",human leptin [3],1.78 ng/mL
"CCCCCCCC(=O)OC[C@@H](CCOc1cc(CN(C)C)cc(OCC[C@@H](COC(=O)CCCCCCC)OC(=O)CCCCCCC)c1)OC(=O)CCCCCCC [Example 92, (R)-4-(3-((S)-3,4-bis(octanoyloxy)butoxy)-5-((dimethylamino)methyl)phenoxy)butane-1,2-diyldioctanoate]",KD FVII 0.03 mg/kg,[2],89.4%
same,"Leptin expression IV-C57BI/6, 24 h",human leptin [3],1.34 ng/mL
